Assay results published in patent US8629163B2, “Tetrakis-quaternary ammonium salts and methods for modulating neuronal nicotinic acteylcholine receptors” (University of Kentucky Research Foundation, priority 2007, dated 2014).

Legend:
[1] = target: T1, α7-type neuronal nicotinic acetylcholine receptors (Rattus norvegicus, UniProt Q05941); test: Inhibition of [^3H]methyllycaconitine (MLA) binding to rat brain membranes; conditions: % inhibition at 100 nM analog; 3 nM [^3H]MLA; nonspecific 10 μM nicotine; 3-4 independent experiments
T1 construct: The brain tissue was homogenized with a Tekmar Polytron; from tissue; host or cells: rat brain membranes (whole brain without cortex and cerebellum)
Description: (§1) Rat brain was dissected into the whole brain tissue without cortex and cerebellum and was frozen in liquid nitrogen and stored at −70° C. until use. The brain tissue was homogenized with a Tekmar Polytron (setting 40) in 20 volumes of ice-cold hypotonic buffer (2 mM HEPES, 14.4 mM NaCl, 0.15 mM KCl, 0.2 mM CaCl2 and […], pH=7.5). The homogenate was centrifuged at 25,000×g for 17 minutes at 4° C. The pellet was resuspended in 20 volumes of the same buffer, and incubated for 10 min at 37° C. The resuspension was cooled to 4° C. and then centrifuged at the above parameters. The pellet was resuspended by sonicaton and centrifuged using the same conditions. The final pellet was stored at −20° C. under 10 ml of the incubation buffer and was suspended just before incubation with radioligand.
(§2) The binding of [^3H]NIC and [^3H]MLA to probe α4β2 and α7-type neuronal nicotinic acetylcholine receptors, respectively, was determined using [^3H]NIC (67 Ci/mmol) and [^3H]MLA (60 Ci/mmol), purchased from Perkin Elmer Life Sciences, Boston, Mass., U.S.A. and American Radiolabel Chemicals, Inc., St. Louis, Mo., U.S.A. Binding was performed in duplicate, in a final volume of 250 μl of the incubation medium, containing 20 mM HEPES, 144 mM NaCl, 1.5 mM KCl, 2 mM CaCl2, and 1 mM MgSO4, pH=7.5. Reaction was initiated by the addition of 100 μL of membrane suspension to the samples containing a desired concentration of test compounds and 3 nM [^3H]NIC or 3 nM [^3H]MLA (final concentrations) and incubated for 60 min at room temperature. Total binding was measured in the absence of unlabelled ligand and nonspecific binding was determined in the presence of 10 μM cytisine, for [^3H]NIC binding, and 10 μM nicotine for [^3H]MLA. The binding reaction was terminated by dilution of samples with 3 mL of ice-cold incubation buffer followed by immediate filtration through Unifilter-96 GFB-filter plates presoaked in 0.5% polyethylenimine using a Filtermate Harvester (Perkin Elmer, Shelton, Conn., U.S.A.). Filters were rinsed five times with 350 μL of ice-cold buffer, and then filter plates were dried at 48° C. for 60 min, bottom sealed and each well filled with 40 μL of Packard Microscint-20 cocktail. After 60 min of gentle shaking, the filter plates were top sealed and radioactivity measured using a Packard TopCount NXT scintillation counter. CPMs were processed through a Packard Windows NT operating system. Protein was measured using the Bradford dye-binding procedure with bovine serum albumin as the standard.
(§3) The ability of a probe concentration of 100 nM of the tetrakis-quaternary ammonium salts to inhibit specific binding was evaluated.
(§4) ^aData are % inhibition at 100 nM concentration of analog for 3-4 independent experiments. Specific binding in the [^3H]NIC binding assay is calculated as the difference between the total binding of 3 nM [^3H]NIC and nonspecific binding in the presence of 10 μM cytisine. Specific binding for the [^3H]MLA binding assay is calculated as the difference between the total binding of 3 nM [^3H]MLA to the receptors alone and its nonspecific binding in the presence of 10 μM nicotine. Analog-induced inhibition of nicotine-evoked [^3H]DA release is calculated as a percent of that in the absence of analog.

[2] = system: rat striatal slices; test: Nicotine-evoked [^3H]dopamine release (overflow) from superfused rat striatal slices; assay type: cell-based; conditions: % inhibition at 100 nM analog; 10 μM S(-)nicotine; rat striatal slices; read-out: Inhibition of Nicotine-evoked [^3H]DA release
Description: Rat striatal slices (500 μm thickness, 6 mg wet weight) were incubated for 30 minutes in Krebs buffer (118 mM NaCl, 4.7 mM KCl, 1.2 mM MgCl2, 1.0 mM NaH2PO4, 1.3 mM CaCl2, 11.1 mM glucose, 25 mM NaHCO3, 0.11 mM L-ascorbic acid, and 0.004 mM disodium EDTA; pH 7.4, and saturated with 95% O2/5% CO2) in a metabolic shaker at 34° C. Slices were rinsed with 15 mL of fresh buffer and incubated for an additional 30 minutes in fresh buffer containing 0.1 μM [^3H]dopamine (DA; 6 slices/3 mL). Subsequently, slices were rinsed with 15 mL of fresh buffer and each slice transferred to a superfusion chamber. Slices were superfused (0.6 mL/min) for 60 minutes with Krebs buffer containing nomifensine (10 μM) and pargyline (10 μM) and maintained at 34° C., pH 7.4, with continual aeration (95% O2/5% CO2). Two 4-minute samples (2.4 mL each) were collected to determine basal outflow of [^3H]DA. Slices were superfused for 36 min following addition of the analogs to the superfusion buffer after the collection of the second sample and nine 4-minute samples were collected. For initial probe assays, the concentration of analog was 100 nM. For concentration-response studies, the concentration of analog varied from 1 nM to 10 μM, and the effect of each concentration was determined using striatal slices obtained from an individual animal (repeated measures design). Subsequently, S(−)nicotine (10 μM) was added to the buffer and nine additional 4-minute samples were collected. At the end of the experiment, each slice was solubilized and the [^3H] content of the tissue determined.
Radioactivity in the superfusate and tissue samples was determined by liquid scintillation spectroscopy. Fractional release for tritium collected in each sample was divided by the total tritium present in the tissue at the time of sample collection and was expressed as a percentage of total tritium. Basal [^3H]outflow was calculated from the average of the tritium collected in the two […] samples just before addition of the analog. The sum of the increase in collected tritium resulting from either exposure to the test compound or exposure to S(−)nicotine in the absence and presence of the test compound equaled total [^3H]overflow. [^3H]Overflow was calculated by subtracting the [^3H]outflow during an equivalent period of prestimulation from the values in samples collected during and after drug exposure. Inasmuch as the radiolabelled compounds were not separated and identified, the tritium collected in superfusate is referred to as either [^3H]outflow or [^3H]overflow, rather than as [^3H]DA. [^3H]Overflow primarily represents [^3H]DA in the presence of nomifensine and pargyline in the superfusion buffer. […]
Analogs were also evaluated for their ability to inhibit NIC evoked [^3H]DA release. Antagonist activity was evaluated by comparing the NIC-evoked [^3H]overflow in the absence and presence of the analogs (see Table 1). […] Data are expressed as M±SEM. Control represents absence of compound. N=4/analog, *p<0.05
as §4
^bIC50 from full concentration response assay; data from 4-5 independent experiments, each performed in duplicate.

[3] = target: T2, α4β2 neuronal nicotinic acetylcholine receptors (Rattus norvegicus, UniProt P09483+P12390); test: Inhibition of [^3H]nicotine (NIC) binding to rat brain membranes; conditions: % inhibition at 100 nM analog; 3 nM [^3H]NIC; nonspecific 10 μM cytisine; 3-4 independent experiments
T2 construct: The brain tissue was homogenized with a Tekmar Polytron; from tissue; host or cells: rat brain membranes (whole brain without cortex and cerebellum)
Description: as §1, §2, §3, §4

[4] = target: T1, α7-type neuronal nicotinic acetylcholine receptors; test: Inhibition of [^3H]methyllycaconitine (MLA) binding to rat brain membranes

T1 sequence (Q05941 23-502): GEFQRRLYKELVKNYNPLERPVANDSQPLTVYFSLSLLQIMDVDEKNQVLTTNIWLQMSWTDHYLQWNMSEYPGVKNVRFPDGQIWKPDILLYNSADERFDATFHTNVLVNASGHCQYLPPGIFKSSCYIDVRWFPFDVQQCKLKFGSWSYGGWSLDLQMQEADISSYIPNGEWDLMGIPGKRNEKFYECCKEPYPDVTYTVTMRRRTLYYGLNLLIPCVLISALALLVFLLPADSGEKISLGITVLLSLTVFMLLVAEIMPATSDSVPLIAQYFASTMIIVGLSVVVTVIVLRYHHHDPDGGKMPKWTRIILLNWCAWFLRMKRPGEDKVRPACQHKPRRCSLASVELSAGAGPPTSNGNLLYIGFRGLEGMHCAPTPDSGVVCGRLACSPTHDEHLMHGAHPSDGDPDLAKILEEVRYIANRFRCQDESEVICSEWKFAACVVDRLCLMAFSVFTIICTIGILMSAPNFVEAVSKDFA
T2 sequence (P09483 31-630): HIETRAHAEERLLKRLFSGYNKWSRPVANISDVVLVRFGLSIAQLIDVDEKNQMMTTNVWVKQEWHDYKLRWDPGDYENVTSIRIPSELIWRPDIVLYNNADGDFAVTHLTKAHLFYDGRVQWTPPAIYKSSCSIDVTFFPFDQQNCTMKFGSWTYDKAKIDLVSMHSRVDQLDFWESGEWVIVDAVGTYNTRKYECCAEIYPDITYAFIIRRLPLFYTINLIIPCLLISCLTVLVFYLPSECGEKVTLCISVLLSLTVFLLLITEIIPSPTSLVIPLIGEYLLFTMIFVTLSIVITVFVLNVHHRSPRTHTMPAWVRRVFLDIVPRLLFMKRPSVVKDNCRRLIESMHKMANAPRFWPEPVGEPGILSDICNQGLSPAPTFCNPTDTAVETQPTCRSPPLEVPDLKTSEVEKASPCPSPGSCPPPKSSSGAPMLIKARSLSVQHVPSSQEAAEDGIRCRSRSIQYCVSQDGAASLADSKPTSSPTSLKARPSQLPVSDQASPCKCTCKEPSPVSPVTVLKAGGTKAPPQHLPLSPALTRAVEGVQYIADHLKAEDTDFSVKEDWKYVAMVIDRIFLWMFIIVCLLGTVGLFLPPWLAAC
T2 sequence (P12390 25-500): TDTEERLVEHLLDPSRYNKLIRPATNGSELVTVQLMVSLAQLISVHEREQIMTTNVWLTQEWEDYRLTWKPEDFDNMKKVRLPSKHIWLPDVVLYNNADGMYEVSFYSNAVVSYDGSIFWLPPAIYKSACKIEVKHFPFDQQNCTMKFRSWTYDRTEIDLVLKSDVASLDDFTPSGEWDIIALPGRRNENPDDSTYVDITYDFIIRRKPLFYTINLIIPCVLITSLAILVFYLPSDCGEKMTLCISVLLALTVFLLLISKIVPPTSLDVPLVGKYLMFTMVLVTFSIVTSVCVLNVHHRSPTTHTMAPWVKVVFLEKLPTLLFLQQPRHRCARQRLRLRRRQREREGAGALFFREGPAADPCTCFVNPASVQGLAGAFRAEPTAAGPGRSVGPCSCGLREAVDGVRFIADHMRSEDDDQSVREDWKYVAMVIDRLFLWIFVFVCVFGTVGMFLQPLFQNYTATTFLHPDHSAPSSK

| Compound | Inhibition of [^3H]MLA binding [1] [%] | inhibition at 0.1 µM [2] [%] | Inhibition of [^3H]Nicotine binding [3] [%] | Ki [4] [nM] |
| --- | --- | --- | --- | --- |
| C(#Cc1cc(C#CCCC[n+]2ccc3c(c2)CCCC3)c(C#CCCC[n+]2ccc3c(c2)CCCC3)cc1C#CCCC[n+]1ccc2c(c1)CCCC2)CCC[n+]1ccc2c(c1)CCCC2.[Br-].[Br-].[Br-].[Br-] | 17 ± 8.9 | 24 ± 14 | 9.7 ± 9.7 |  |
| Cc1ccc[n+](CCCC#Cc2cc(C#CCCC[n+]3cccc(C)c3)c(C#CCCC[n+]3cccc(C)c3)cc2C#CCCC[n+]2cccc(C)c2)c1.[Br-].[Br-].[Br-].[Br-] | 18 ± 7.8 | 16 ± 13 | 11 ± 11 |  |
| α-bungarotoxin |  |  |  | 28.6 ± 5.4 |
| Cc1ccc[n+](CCCCCc2cc(CCCCC[n+]3cccc(C)c3)c(CCCCC[n+]3cccc(C)c3)cc2CCCCC[n+]2cccc(C)c2)c1.[Br-].[Br-].[Br-].[Br-] | 12 ± 6.9 | 8 ± 4 | 12 ± 4.4 |  |
| C(#Cc1cc(C#CCCC[n+]2cccc(Cc3ccccc3)c2)c(C#CCCC[n+]2cccc(Cc3ccccc3)c2)cc1C#CCCC[n+]1cccc(Cc2ccccc2)c1)CCC[n+]1cccc(Cc2ccccc2)c1.[Br-].[Br-].[Br-].[Br-] | 53 ± 3.5 | 17 ± 17 | 2.9 ± 2.9 |  |
| C(#Cc1cc(C#CCCC[n+]2ccc3ccccc3c2)c(C#CCCC[n+]2ccc3ccccc3c2)cc1C#CCCC[n+]1ccc2ccccc2c1)CCC[n+]1ccc2ccccc2c1.[Br-].[Br-].[Br-].[Br-] | 4.9 ± 3.8 | 39 ± 17 | 0 ± 0 |  |
